TGI and GI50 data for 30 compounds are collected here from PubChem BioAssay (NCI).

SMILES strings stand for the structures.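 Values below derive from 48-hour exposures of cells grown in 96-well plates, with endpoints linearly interpolated between the two concentrations bracketing the appropriate inhibition level. At the GI50, growth is halved. The concentration for full growth arrest is given as TGI.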 Where a SMILES comes first, the peptide text is derived from it. Bounds are passed on as bounds.

What all share (assay): NCI anticancer screen, dose series, 48 h
The subject of experiment [1] is ACHN renal.
The test system of experiment [2] is HCC-2998 colon.
For experiment [3], the system named is HL-60(TB) leukemia.
For experiment [4], the system named is MDA-MB-231 breast.
In experiment [5] the test system is MOLT-4 leukemia.
Experiment [6] deals with OVCAR-3 ovarian.
Experiment [7] deals with SK-MEL-5 melanoma.
In experiment [8] the test system is MCF7 breast.
The test system of experiment [9] is NCI-H226 lung.
Experiment [10] deals with UACC-62 melanoma.

On to `CC(=O)/C(=C/N1CC(=O)NC1=S)C(=O)Nc1ccccc1C`, for which the TGI in [1], in [2], in [3], in [4], in [5] and in experiment [6] was above 100 µM in each case. The compound further had a TGI in experiment [7] above 100 µM.
Take `Nc1nncc2n[nH]nc12`: the TGI in [1] was above 100 µM; in experiment [3] it was above 100 µM; in experiment [8] it was above 100 µM; in experiment [4], above 100 µM; in [5], 91 µM; in experiment [9], above 100 µM. Further, the TGI is above 100 µM in experiment [6], 30.7 µM in experiment [7] and above 100 µM in experiment [10].
Turning to `COc1c(O)cc2c(c1O)C(=O)C(Cc1ccc(O)cc1)CO2` (stereo not drawn), the TGI in experiment [1], in [3], in [8], in experiment [4], in [5] and in [6] was above 100 µM throughout. The TGI in [7] and in experiment [10] was above 100 µM in each case.
In the case of `N=C1c2ccccc2C(=O)c2c(NCCNCCO)ccc(O)c21`, the TGI in experiment [1] is 57 µM; in experiment [2], 21.4 µM; in experiment [3], 27.6 µM; in experiment [5], 10.8 µM; in [9], 44.7 µM; in experiment [6], 52.7 µM. For the same compound, the TGI was found to be 19.3 µM in experiment [7] and 18.9 µM in experiment [10].
For the compound `COC(=O)CC(C(C(=O)OCc1ccccc1)C(C)O)N1C(=O)OCC1c1ccccc1` (stereo not drawn), the TGI in [1], in experiment [2], in [3], in experiment [5], in [9] and in experiment [6] was above 100 µM throughout. In addition, the TGI in experiment [7] and in experiment [10] was above 100 µM each time.
As for `CC(=O)NC(CS)C(=O)NC(CO)C(=O)NC(CO)C(=O)NC(Cc1c[nH]c2ccccc12)C(=O)N1CCCC1C(=O)NC(CO)C(=O)NC(Cc1c[nH]c2ccccc12)C(=O)NC(Cc1c[nH]cn1)C(=O)NC(CO)C(=O)NC(Cc1c[nH]c2ccccc12)C(=O)NCC(=O)NCC(=O)NC(C)C(=O)NC(CCC(N)=O)C(=O)NC(CCCCN)C(=O)NC(C)C(=O)NC(CCCNC(=N)N)C(=O)NC(CCCCN)C(N)=O` (stereo not drawn) (Ac-CSSWPSWHSWGGAQKARK-NH2; configuration not given here), the TGI was above 50 µM in experiment [1]; 34.5 µM in experiment [3]; above 50 µM in experiment [8]; 19.7 µM in [4]; above 50 µM in experiment [5]; above 50 µM in experiment [9]. The values for the TGI in [6], in experiment [7] and in experiment [10] were above 50 µM, 22.4 µM and 24 µM, respectively.
As for `COc1ccc(C/C=C(\C)CCO)cc1`, the TGI in experiment [1], in experiment [8], in [4], in [5], in [6] and in [7] was above 100 µM throughout. In experiment [10], the TGI is above 100 µM.
Turning to `Cc1cc(C)n(CN(CCCCO)Cn2nc(C)cc2C)n1`, the TGI came out at 39.4 µM in [1]; 79 µM in [3]; 68.3 µM in experiment [8]; 78.6 µM in [4]; 50.7 µM in experiment [5]; 58 µM in [6]. The TGI in experiment [7] is above 100 µM; in experiment [10] it was 36.9 µM.
On to `CC1=C(O)C(=O)C2C(=O)C1C(C)C2c1ccccc1` (stereo not drawn), for which the TGI in [1], in experiment [2], in [5], in [9], in experiment [6] and in experiment [7] was above 100 µM each time. Also, in [10], the TGI is above 100 µM.
Take `O=C([O-])c1ccccc1Nc1ccccc1C(=O)[O-].[OH3+].[Zn+2]`: the TGI in [1] is above 100 µM; in experiment [2], above 100 µM; in experiment [3] it was 49.4 µM; in experiment [5], 99.8 µM; in experiment [9] it was 67 µM; in [6] it was 32.9 µM. Moreover, the TGI in [7] was 62.3 µM; in experiment [10] it was 39.9 µM.
Take `[N-]=[N+]=C1C(=O)C2CC3CC1CC2C3` (stereo not drawn): the TGI in experiment [1], in [2], in experiment [3], in experiment [5], in experiment [9] and in experiment [6] was above 100 µM each time. The TGI in experiment [7] and in [10] was above 100 µM in each case.
On to `COC1CC(O[C@H]2CC[C@@]3(C)C(=CCC4(O)C3CCC35C(=O)OC6(C)O[C@@]43CCC65)C2)OC(C)C1O` (stereo partly drawn), for which the TGI in experiment [1], in experiment [2], in experiment [3], in experiment [5], in experiment [9] and in experiment [7] was above 100 µM each time. The compound further yielded a TGI in experiment [10] above 100 µM.
On to `CO/S(=N/S(=O)(=O)c1ccccc1)c1ccccc1[N+](=O)[O-]` (stereo not drawn), for which the TGI in experiment [1], in experiment [2], in experiment [5], in experiment [9], in experiment [6] and in experiment [7] was above 100 µM in each case. The compound also had a TGI in experiment [10] above 100 µM.
Consider `CC(=O)OCCCCn1nncc1Cn1ccc(=O)n(Cc2cnnn2CCCCOC(C)=O)c1=O`, for which the TGI in experiment [1], in experiment [2], in [8], in [4], in experiment [5] and in experiment [9] was above 100 µM throughout. Further, the TGI in experiment [6] and in [7] was above 100 µM in each case.
For `COC(=O)c1ccc(NCC2=CC(=O)C=CC2=O)cc1O`, the TGI in [1] was 26.8 µM; in experiment [8], 76.3 µM; in experiment [4], 34.7 µM; in [5], above 100 µM; in [9] it was 44.7 µM; in experiment [6], 24.7 µM. Further, the TGI in [7] came out at 80.1 µM; in experiment [10], 30.4 µM.
Take `O=CC1=CCCN(CCc2c[nH]c3ccccc23)C1`: the TGI in experiment [1] is 125 µM; in experiment [2], 128 µM; in experiment [3] it was 91.3 µM; in [5] it was above 393 µM; in experiment [9], 102 µM; in [6], 95.9 µM. Further, the figures for the TGI in [7] and in [10] were 129 µM and 111 µM, respectively.
For the compound `Cc1ccc2c(ccc3ncc(CNc4ccc(NS(C)(=O)=O)cc4)c32)[nH]1`, the TGI in experiment [1] was above 100 µM; in experiment [3], 65.3 µM; in [8], 44.5 µM; in experiment [4], 74.5 µM; in [5], 44.7 µM; in experiment [9] it was 55.6 µM. For the same compound, the values for the TGI in [6], in [7] and in experiment [10] were 43.8 µM, 39.4 µM and 34.2 µM, respectively.
Take `C1=C2C3=[N+](CCCC3)CC2Cc2sccc21` (stereo not drawn): the TGI in experiment [1], in [3], in [8], in experiment [4], in [5] and in experiment [9] was above 100 µM each time. The TGI in experiment [6], in [7] and in [10] was above 100 µM each time.
As to `O=C(O)CN1CCN2CCCCCCCCN(CC1)CCN(CC(=O)O)CC2`, the TGI in experiment [1] is above 100 µM; in experiment [3], 30.7 µM; in [8], above 100 µM; in experiment [4], above 100 µM; in [5], above 100 µM; in [9] it was above 100 µM. Besides, the TGI in experiment [6], in experiment [7] and in experiment [10] was above 100 µM each time.
Consider `COc1c(C)c(C/C=C(\C)CC/C=C(\C)CC/C=C(\C)CC/C=C(\C)CCC=C(C)C)c(OC)c(OC)c1OC`, for which the TGI in [1] was 33.3 µM; in [8] it was above 100 µM; in experiment [4], above 100 µM; in experiment [5], above 100 µM; in [6] it was above 100 µM; in [7] it was 38.1 µM. In [10], the TGI was above 100 µM.
As to `COc1ccc2c(c1)C(=O)c1c-2n(CCCN=[N+]=[N-])c(=O)c2cc([N+](=O)[O-])ccc12`, the GI50 was 0.0443 µM in experiment [1]; 0.013 µM in experiment [2]; below 0.001 µM in [8]; 33.3 µM in [4]; below 0.001 µM in experiment [5]; 0.268 µM in experiment [9]. Besides, the GI50 is 0.0106 µM in experiment [7] and 0.225 µM in experiment [10]. In addition, the TGI in [8] was 4.83 µM; in experiment [4], above 100 µM; in experiment [9], 0.874 µM; in experiment [7], 0.0849 µM; in experiment [10] it was 0.991 µM.
Consider `O=c1c2ccccc2ncn1COCc1ccccc1`, for which the TGI in [1], in experiment [2], in experiment [3], in [8], in [5] and in experiment [9] was above 100 µM each time. Moreover, the TGI in [6], in experiment [7] and in experiment [10] was above 100 µM in each case.
On to `CSc1nc2nccnc2c(=O)[nH]1`, for which the TGI in [1], in experiment [2], in experiment [3], in experiment [5], in experiment [9] and in experiment [7] was above 100 µM in each case. This compound also displayed a TGI in [10] above 100 µM.
For the compound `O=C(CSc1nc2ccc(I)cc2c(=O)n1Cc1ccccc1)NNC(=S)Nc1ccccc1`, the TGI in [1], in experiment [2], in experiment [3], in [8], in [5] and in experiment [9] was above 100 µM each time. Further, the TGI in experiment [6], in experiment [7] and in experiment [10] was above 100 µM throughout.
Regarding `CCSC1=N/C(=C\c2ccco2)C(Nc2ccc(C)cc2)=N1`, the TGI in experiment [1], in [8], in experiment [4], in [5], in experiment [9] and in experiment [6] was above 100 µM each time. The TGI in [7] and in [10] was above 100 µM each time.
As for `CCCC(=O)Nc1cc(/C=C/C(=O)N2CC(CCl)c3ccc([N+](=O)[O-])cc32)n(C)c1` (stereo not drawn), the TGI in experiment [1], in experiment [2], in experiment [8], in experiment [4], in experiment [9] and in experiment [6] was above 100 µM in each case. Further, in experiment [10], the TGI is above 100 µM.
As to `CC1(C)CC[C@]2(C)[C@@H](O)C[C@]3(C)C(=CC[C@@H]4[C@@]5(C)CC[C@H](O)C(C)(C)[C@@H]5CC[C@]43C)[C@@H]2C1`, the TGI in experiment [1] was above 100 µM; in experiment [3] it was above 100 µM; in [8] it was above 100 µM; in experiment [4], 48.6 µM; in experiment [5], above 100 µM; in experiment [9] it was above 100 µM. For the same compound, the TGI in [6], in [7] and in experiment [10] was above 100 µM each time.
`CC1=C(C(=O)O)N2C(=O)[C@@H](NC(=O)C(c3ccccc3)N3CSC(=S)N(C(C)C)C3)C2SC1` (stereo partly drawn): the TGI in experiment [1], in [3], in experiment [5], in experiment [6], in experiment [7] and in experiment [10] was above 100 µM throughout.
Take `Cn1c2ccccc2c2c3c(c4c5ccccc5n(C)c4c21)C(=O)N(Cc1ccccc1)C3=O`: the TGI in experiment [1], in [2], in experiment [8], in [4], in [5] and in experiment [9] was above 100 µM each time. The TGI in experiment [7] and in experiment [10] was above 100 µM throughout.
As for `CCCNC(=O)Cn1c2c(c3ccccc31)CCCC2`, the TGI in experiment [1], in experiment [2], in experiment [3], in [8], in [5] and in experiment [6] was above 100 µM in each case. Also, the TGI in [7] and in experiment [10] was above 100 µM throughout.
